B1: IFN-γ: cytokine IFN-γ used to treat MΦ-cTLR4 cells (protein, UniProt P01580 23-155, looked up)
Interferon gamma: HGTVIESLESLNNYFNSSGIDVEEKSLFLDIWRNWQKDGDMKILQSQIISFYLRLFEVLKDNQAISNNISVIESHLITTFFSNSKAKKDAFMSIAKFEVNNPQVQRQAFNELIRVVHQLLPESSLRKRKRSRC
B2: TNFα: recombinant mouse TNFα purchased from Sigma (protein)
chain: LRSSSQNSSDKPVAHVVANHQVEEQLEWLSQRANALLANGMDLKDNQLVVPADGLYLVYSQVLFKGQGCPDYVLLTHTVSRFAISYQEKVNLLSAVKSPCPKDTPEGAELKPWYEPIYLGGVFQLEKGDQLSAEVNLPKYLDFAESGQVYFGVIAL

What was measured:
MΦ-cTLR4 cells [1] = experiment: Western blot for iNOS in MΦ-cTLR4 cells; type: cell-based, murine; conditions: 24 h treatment; CID 50 nM, LPS 100 ng/mL
Experimental: (§1) Protein from RAW264.7, MΦ-T2A (vector control cells), and MΦ-cTLR4 cell monolayers were extracted by lysis in Laemmli buffer containing 1× Halt Protease Inhibitor cocktail (Thermo Scientific). Following lysis, samples were boiled and protein concentration was determined by performing a BCA assay from Thermo Scientific. Samples (10-30 μg of lysates) were run on 4-20% Mini-PROTEAN® TGX precast polyacrylamide gels (Bio-Rad). Protein from gels were transferred onto PVDF membranes and probed with the appropriate primary antibody overnight. Membranes were washed between each antibody incubation and subsequently probed with the appropriate HRP-conjugated secondary antibody (Life Technologies). The Clarity Western ECL Substrate (Bio-Rad) was used to detect bands.

[2] = test system: IRF3 phosphorylation in MΦ-cTLR4 cells; experiment: Western blot for p-IRF3 and total IRF3 (MyD88-independent pathway); type: cell-based, murine; conditions: CID 50 nM, LPS 100 ng/mL; compared to vehicle
Experimental: as §1
To determine if the MΦ-cTLR4 cells were signaling through the MyD88-independent pathway, we tested for phosphorylated IRF3. […] The IRF3 phosphorylation of the CID- and LPS-treated MΦ-cTLR4 cells starts to decrease following the 2 hour timepoint and subsequently reaches similar levels as vehicle at the 6 and 12 hour timepoints.

[3] = test system: MΦ-cTLR4 cells co-cultured with rat aortic ECs (RAECs); experiment: Co-culture tube formation (angiogenesis) assay; type: cell-based; conditions: CID 50 nM or LPS 100 ng/mL added to the medium
From the text: Untreated MΦ-cTLR4 cells co-cultured with rat aortic ECs (RAECs), with no added factors to the medium, had the least amount of isolated segments, the least amount of branches, and the most amount of branching interval.

MΦ-cTLR4 cells [4] = experiment: ELISA for VEGF-A in MΦ-cTLR4 medium; type: cell-based, murine; conditions: for VEGF expression compared to controls: single treatment (FIG. 22A)
Experimental: In order to determine if the MΦ-cTLR4 cells were expressing the key angiogenic molecule VEGF-A, an ELISA was performed to test for VEGF-A levels in MΦ-cTLR4 medium following various treatments (FIG. 22A). […] Since studies have shown human and rat MΦs express increased VEGF with IFN-γ treatment, the response was also tested with this factor.

MΦ-cTLR4 cells [5] = experiment: Cytokine profile (ELISA of supernatants) of MΦ-cTLR4 cells; type: cell-based, murine
Experimental: We tested IL-6 and TNFα concentrations in supernatants of transduced RAW264.7 cells in vitro. Briefly, MΦ-cTLR4 cells (1×106) were plated in each well of a 6-well plate and treated with vehicle (100% EtOH), LPS (100 ng/mL), CID drug (50 nM), or left untreated in DMEM without serum. Supernatants were collected and tested using the mouse IL-6 ELISA Ready-SET-Go! and the mouse TNFα ELISA Ready-SET-Go! Kits (eBioscience) according to the manufacturer's instructions. Plates were read at 450 nm with a 570 nm wavelength subtraction, normalized to standard solutions, and concentrations (pg/mL) were calculated.

[6] = test system: ERK1/2 phosphorylation in MΦ-cTLR4 cells; experiment: Western blot for p-ERK and total ERK (MyD88-dependent pathway); type: cell-based, murine; conditions: 0 to 60 minutes; CID 50 nM, LPS 100 ng/mL
Experimental: as §1
Following LPS stimulation and subsequent TNFα production, the TLR4 pathway leads to activation of NF-κB and the three MAPK pathways through the MyD88-dependent pathway. Both NF-κB and MAPK pathways directly control the transcription of the IL-6 and iNOS inflammatory genes, as well as control the mRNA stability of those transcripts. For the activated MΦ-cTLR4 cells, ERK1/2 phosphorylation is expected if the MyD88 dependent pathway and subsequent downstream TRAF6 activation has occurred. […]

[7] = test system: NF-κB promoter in MΦ-cTLR4 cells; experiment: Dual-Luciferase NF-κB reporter assay; type: cell-based, murine; conditions: CID 50 nM, 4 hours; compared to vehicle
Experimental: Two hundred thousand cells/well were seeded in 24-well plates. The following day each well was transfected with a total of 0.8 μg plasmid DNA, which consisted of a 20:1 ratio of pBllX-LUC (NFκB reporter construct):pRL (Renilla luciferase construct). The promoterless pGL4.10 vector was also transfected in a 20:1 ratio of pGL4.10:pRL, as a control. Transfections of each well were performed with 2 μL Lipofectamine 2000 (Invitrogen). The following morning transfection reagents were replaced with fresh serum-free medium and treated with either vehicle (100% EtOH) or CID drug (50 nM) for 4 hours. Cell lysate was harvested and luciferase activity was measured using a Dual-Luciferase® reporter assay kit (Promega) according to manufacturer's instructions. All groups were normalized to Renilla luciferase.

bEnd.3 endothelial cells = experiment: Endothelial cell activation by MΦ-cTLR4 conditioned media (flow cytometry for VCAM-1 and ICAM-1); type: cell-based, mouse; conditions: media from MΦ-cTLR4 treated 6 h (TNFα 20 ng/mL, CID 50 nM); bEnd.3 incubated 12 h
Experimental: MΦ-cTRL4 conditioned media, following a 6 hour treatment in 6-well plates (1×10^6 cells/well), was transferred to plated bEnd.3 cells in a 12-well plate (0.2×10^6 cells/well). Before media transfer, TNFα neutralizing and IgG isotype antibody (1 μg/mL) were incubated in media for 15 minutes. Media was then added to bEnd.3 cells for 12 hours. Following incubation, bEnd.3 cells were trypsinized and stained for ICAM-1 and VCAM-1. Cell cytometry was performed on a FACSCanto II Cell Analyzer (BD Biosciences) equipped with 488 nm and 647 nm lasers. Typically, 10,000 cells were analyzed per sample. Experiments were repeated at least three times. Non-specific staining was evaluated using a monoclonal antibody for IgG2b and IgG2a (eBioscience).

[8] = test system: MΦ-cTLR4 cells in Matrigel plug; experiment: In vivo Matrigel plug with MΦ-cTLR4 cells; set-up: species or system BALB/c mice; conditions: 14 day; CID drug 2 mg/kg intraperitoneal every other day; s.c. Matrigel plug
Experimental: Four groups of 4 week old female BALB/c mice (total of 16 mice) were used in this in vivo study. The four groups consisted of: 7 day non-treated mice, 7 day CID-treated mice, 14 day non-treated mice, and 14 day CID-treated mice. At day of injection, pre-plated MΦ-cTLR4 cells were lifted off and counted. 0.5×10^6 cells were s.c. injected mixed in with Matrigel into the right back dorsal area of the mouse. Before placing mouse back in cage, mice were injected with the first intraperitoneal CID drug dose (2 mg/kg mouse weight). Treatment groups were given CID drug injections every other day during the course of the experiment (FIG. 20).

[9] = 24 h treatment, CID drug 50 nM, compared to uninduced controls

Molecule | iNOS expression (130 kDa band) (MΦ-cTLR4 cells [1]) | time of activation peak of p-IRF3/total IRF3 ratio [2] | branching interval vs untreated co-cultures [3] | isolated segments [3] | number of branches vs untreated co-cultures [3] | number of master segments compared to the control [3] | VEGF expression compared to controls (MΦ-cTLR4 cells [4]) | time to upregulation of key pro-inflammatory markers after CID drug addition (MΦ-cTLR4 cells [5]) | IL-6 levels (MΦ-cTLR4 cells [5]; [9]) | TNFα levels (MΦ-cTLR4 cells [5]; [9]) | time IL-6 levels stayed activated (MΦ-cTLR4 cells [5]; constant CID drug (50 nM) in media) | time elevated levels of TNFα, IL-6 and iNOS are maintained (MΦ-cTLR4 cells [5]; constant CID drug (50 nM) in media, changed every 24 h) | dose producing the maximum activation of MΦ-cTLR4 cells (IL-6 ELISA) (MΦ-cTLR4 cells [5]; titration 50 nM-250 nM, 24 h treatment) | ERK1/2 phosphorylation (p-ERK/total ERK ratio relative to zero timepoint) [6] | NF-κB promoter activation (luciferase activity normalized to Renilla) [7] | EC positive for ICAM-1 (bEnd.3 endothelial cells) | EC positive for VCAM-1 (bEnd.3 endothelial cells) | co-localization of GFP MΦ-cTLR4 cells and iNOS regions in plug [8] | VEGF compared to the control, IFN-γ alone or in cocktail (MΦ-cTLR4 cells [4]; IFN-γ alone or cocktail with CID or LPS (FIG. 22B))
lipopolysaccharides [LPS] | substantial increase in iNOS expression | 2 h | smaller branching interval | highest number of isolated segments | much more branches | not significantly different | significantly decreased amounts of VEGF | – | – | – | – | – | – | – | – | – | – | – | –
CC[C@H](C(=O)N1CCCC[C@H]1C(=O)O[C@H](CCc1ccc(OC)c(OC)c1)c1cccc(OCC(=O)NCC(CNC(=O)COc2cccc([C@@H](CCc3ccc(OC)c(OC)c3)OC(=O)[C@@H]3CCCCN3C(=O)[C@@H](CC)c3cc(OC)c(OC)c(OC)c3)c2)CN(C)C)c1)c1cc(OC)c(OC)c(OC)c1 [CID drug, AP20187] | much lower intensity than the LPS-treated cells | 2 h | smaller branching interval | slightly more isolated segments than the untreated group | much more branches | not significantly different | significantly decreased amounts of VEGF | 6 h | increased | increased | 72 h | at least 48 hours | at least 50 nM | upregulation of ERK1/2 phosphorylation at the 5 minute timepoint | increased NF-κB promoter activation | 64.4% | 93.7% | occurrences of GFP/iNOS co-localization | –
B1 | – | – | – | – | – | – | – | – | – | – | – | – | – | – | – | – | – | – | significant decrease in VEGF
B2 | – | – | – | – | – | – | – | – | – | – | – | – | – | – | – | 57.2% | 93.5% | – | –

From US20190008897A1, “COMPOSITIONS AND METHODS FOR PRODUCING PRO-INFLAMMATORY MACROPHAGES” (UNIVERSITY OF WASHINGTON, priority 2015, published 2019)
